Measurements taken from PubChem BioAssay (NCI).
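Dose response: 5 concentrations. Exposure: 48 h. Format: 96-well plates. Endpoint: linear interpolation; highest concentration if not reached. The concentration for 50% growth inhibition is given as GI50. TGI marks complete inhibition of growth.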

Columns and labels:
Test in all cases: inhibition of tumour cell growth, NCI panel, 48 h
[1] = test system: SF-539 CNS
[2] = test system: EKVX NSCLC
[3] = test system: OVCAR-3 ovarian
[4] = test system: HS 578T breast
[5] = test system: SN12C renal
[6] = test system: UACC-62 melanoma
[7] = test system: SF-268 CNS
[8] = test system: KM12 colon
[9] = test system: CAKI-1 renal
[10] = test system: NCI/ADR-RES ovarian

COc1cc2c(cc1OC)-c1cc3ccccc3c[n+]1CC2
TGI [1]: > 100 µM | TGI [2]: > 100 µM | TGI [3]: > 100 µM | TGI [4]: 94.7 µM | TGI [5]: > 100 µM | TGI [6]: > 100 µM | TGI [7]: > 100 µM | TGI [8]: > 100 µM | TGI [9]: > 100 µM | TGI [10]: > 100 µM

CCOc1ccc2nc(-c3ccc(O)cc3)sc2c1
TGI [1]: > 100 µM | TGI [2]: 55.2 µM | TGI [3]: > 100 µM | TGI [5]: > 100 µM | TGI [6]: > 100 µM | TGI [7]: 91.3 µM | TGI [8]: > 100 µM | TGI [9]: > 100 µM | TGI [10]: > 100 µM

O=C(Nc1cccc(-n2ccc3c(NC(=O)c4ccccc4)nccc32)c1)c1ccc(N2CCOCC2)c(C(F)(F)F)c1
GI50 [1]: 0.0358 µM | TGI [1]: 3.42 µM | GI50 [2]: 0.212 µM | TGI [2]: > 100 µM | GI50 [3]: 0.0233 µM | TGI [3]: 0.0504 µM | GI50 [4]: 0.272 µM | TGI [4]: 98.6 µM | GI50 [5]: 0.134 µM | TGI [5]: > 100 µM | GI50 [6]: 0.0414 µM | TGI [6]: 22.5 µM | GI50 [7]: 0.0625 µM | TGI [7]: > 100 µM | GI50 [8]: 0.0364 µM | TGI [8]: 1.36 µM | GI50 [9]: 0.0462 µM | TGI [9]: 14.8 µM | GI50 [10]: 0.0352 µM | TGI [10]: > 51.4 µM

CC1(C)CC23C4COC(=O)C2CCC1C3CC4=O (stereo unspecified)
TGI [1]: 45.1 µM | TGI [2]: 83.8 µM | TGI [3]: 27.7 µM | TGI [5]: 42.5 µM | TGI [6]: 28.7 µM | TGI [7]: 50.9 µM | TGI [8]: 27.2 µM | TGI [9]: 43 µM | TGI [10]: 24.8 µM

COC1=C2CC(C)CC(OC)C(O)C(C)/C=C(\C)C(OC(N)=O)C(OC)/C=C\C=C(/C)C(=O)NC(=C(C=NC(C)(C)C)C1=O)C2=O (stereo unspecified)
TGI [1]: 24.2 µM | TGI [2]: 26 µM | TGI [3]: 13.2 µM | TGI [5]: 21 µM | TGI [6]: 17.6 µM | TGI [7]: 37.4 µM | TGI [8]: 15 µM | TGI [9]: 23.7 µM | TGI [10]: 44.4 µM

O=C1OC[C@@H]2[C@@H](O)CCCCCN12
TGI [1]: > 100 µM | TGI [2]: > 100 µM | TGI [3]: > 100 µM | TGI [4]: > 100 µM | TGI [5]: > 100 µM | TGI [6]: > 100 µM | TGI [8]: > 100 µM | TGI [9]: > 100 µM | TGI [10]: > 100 µM

Fc1ccc2[nH]cc(-c3nc(-c4c[nH]c5ncccc45)cs3)c2c1
GI50 [2]: 3.34 µM | TGI [2]: > 100 µM | GI50 [4]: 3.15 µM | TGI [4]: > 100 µM | GI50 [6]: > 100 µM | TGI [6]: > 100 µM | GI50 [8]: 4.65 µM | TGI [8]: > 100 µM

N/C(=N\N=C/c1ccccc1O)NO
TGI [1]: 28.3 µM | TGI [2]: 71.4 µM | TGI [3]: > 100 µM | TGI [5]: > 100 µM | TGI [6]: 38.4 µM | TGI [7]: 90.5 µM | TGI [8]: > 100 µM | TGI [9]: 24 µM | TGI [10]: 44.2 µM

Nc1ncnc2c1ncn2C1OC(COP(=O)(O)O)C(O)C1O (stereo unspecified)
TGI [1]: > 50 µM | TGI [2]: > 50 µM | TGI [3]: > 50 µM | TGI [5]: > 50 µM | TGI [6]: > 50 µM | TGI [7]: > 50 µM | TGI [8]: > 50 µM | TGI [9]: > 50 µM | TGI [10]: > 32.2 µM

CCOC(=O)NC(Nc1ncccn1)(C(F)(F)F)C(F)(F)F
TGI [1]: > 100 µM | TGI [2]: > 100 µM | TGI [3]: > 100 µM | TGI [4]: > 100 µM | TGI [5]: > 100 µM | TGI [6]: > 100 µM | TGI [7]: > 100 µM | TGI [8]: > 100 µM

CCS(=O)(=O)N1CCC(C(C)n2c(C)c(C(=O)NCc3c(OC)cc(C)[nH]c3=O)c3ccccc32)CC1 (stereo unspecified)
GI50 [1]: > 100 µM | TGI [1]: > 100 µM | GI50 [2]: > 100 µM | TGI [2]: > 100 µM | GI50 [3]: > 100 µM | TGI [3]: > 100 µM | GI50 [4]: > 100 µM | TGI [4]: > 100 µM | GI50 [7]: > 100 µM | TGI [7]: > 100 µM | GI50 [8]: > 100 µM | TGI [8]: > 100 µM | GI50 [9]: > 100 µM | TGI [9]: > 100 µM | GI50 [10]: > 100 µM | TGI [10]: > 100 µM
